The source of these data is US9072729B2, “Method for treating fibrosis and cancer with imidazolium and imidazolinium compounds” (Agency for Science, Technology and Research, priority 2008, dated 2015).

One test relates to HLE cells. Kind of test: HLE cell proliferation assay (cell count, BrdU; HCS). The format is cell-based, human. To be noted: 0-1.25 mM, 48 h. As to the method: FIG. 21. DBZIM inhibited cell proliferation and disrupted cell cycle in HLE cells (A). DBZIM inhibited HCC cell proliferation. HLE cells were seeded at a density of 5000 cells/well in 96-well plate, and cultured for 18-24 h in 10% […] DMEM before the addition of various compounds (0-1.25 mM) in 10% FBS DMEM for 48 h of proliferation before assaying. Cell count was calculated based on Hoechst dye staining and BrdU incorporation was based on the total fluorescence intensity of antibody staining. (B). DBZIM arrested HCC cells at G0/G1 phase. HLE cells were incubated with DBZIM (0, 1, 3 mM) for 24 hr before fixation and DAPI staining for DNA content (2N vs. 4N) determination.
HLE cells were grown, treated by compounds in 6 replicates for 48 hr in a 96-well plate. Cells were then fixed by using 4% paraformaldehyde and stained by DAPI and BrdU antibody using Hitkit (Thermo Scientific, IL, USA). Cells were imaged and analyzed on ArrayScan VTI HCS reader (Thermal Scientific, PA, USA). Cell numbers were counted based on nuclear staining and BrdU incorporation was determined and expressed as percentage of positively stained cells.
The effect of DBZIM on the HCC cell proliferation and cell cycle was characterized on a high-content screening (HCS) platform. Under each concentration, at lease 1000 cells were analyzed. […]

For another test, the system named is HepG2 cells. Description: Annexin V staining and flow cytometry, HepG2. The format is cell-based, human. To be noted: HepG2, 24 hr; TRAIL 100 ng/ml. As to the method:
FIG. 22. […] HLE or HepG2 cells were incubated with DBZIM of various concentrations for 6 hr, and assayed for caspase 3/7 activity and LDH releasing (expressed as % toxicity). DBZIM induced apoptosis as characterized by annexin V staining using flow cytometer in HLE (E) and HepG2 (F). Scatter plot and histogram gave the representative information on the cell population distribution while bar graphs quantified the percentage of apoptotic cells from the histogram. HLE and HepG2 cells were treated by DBZIM of various concentrations for 24 hr before harvesting for annexin V staining and flow cytometric analysis.
HLE and HepG2 cells were treated with various concentrations of DBZIM or TRAIL (100 ng/ml) for 24 hr, harvested and labeled with Annexin V-FITC (BioVision, CA, USA). The labeled cells were analysed by flow cytometry FACSCalibur ([…], NJ, USA) and CellQuest software. Cells showing green staining in the plasma membrane were considered as apoptotic cells.
In general terms: Flow cytometry measures light scatter and fluorescence of single cells or particles in a stream.

A further test has as its system H1299. Kind of test: Proliferation assay (MTS), lung cancer cell line. To be noted: Homo sapiens, NCI-H1299, 72 h, determined at day 3. The format is cell-based. As to the method:
(§1) Proliferation of Glioma cell lines: U87 MG and C6 under the treatment of DBZIM was examined using 3-(4,5-dimethylthiazol-2-yl)-5-(3-carboxymethoxyphenyl)-2-(4-sulfophenyl)-2H-tetrazolium (MTS) based proliferation assay kit (Promega, Wis., USA). MTS reagent was added to the control and treated cells (after 48 hr) directly and the absorbance signal was read at 490 nm using a Tecan Safire II plate reader.
(§2) The IC50 value (determined at day 3) was 50 μM for H1299 (lung cancer); 50 μM for MCF-7 (breast cancer), and 40 μM for AGS gastric cancer at day 3 (Table 3).

In a further test the test system is AGS. Kind of test: Proliferation assay (MTS), gastric cancer cell line. The format is cell-based. To be noted: Homo sapiens, 72 h, day 3. As to the method: as §1, §2
For test [1], the system named is U87 MG. Kind of test: Proliferation assay (MTS), glioma U87 MG. The format is cell-based. To be noted: Homo sapiens, U-87 MG, 48 h, determined at day 2. Here is the method:
(§3) FIG. 30. DBZIM inhibited cell proliferation in glioma cell line C6 (A) and U87 MG (C) and induced caspase 3/7 activity in C6 (B) and U87 MG (D). C6 or U87 cells were incubated with DBZIM of various concentrations for 48 hr for proliferation assay and 6 hr for caspase 3/7 activation assay. Proliferation was measured using MTS kit from Promega and expressed as relative cell proliferation with control group was normalized to 1. Caspase 3/7 activity was quantified using a kit from Promega and also expressed as relative caspase 3/7 activity of treated groups over control group.
as §1

The next test deals with C6. Description: Proliferation assay (MTS), glioma C6. The format is cell-based. To be noted: Rattus norvegicus, 48 h; C6, determined at day 2. As to the method:
as §3, §1

Test [2] has as its system U87 MG. Description: Caspase 3/7 activity in U87 MG. The format is cell-based, human. To be noted: 2 mM, 6 hr. Here is the method:
as §3
Capspase 3/7 activity and lactate dehydrogenase (LDH) release were measured by Fluorometric assays (Promega Corp., WI, USA). The HCC cells were cultured in 96-well plate and treated with DBZIM of various concentrations for 6 hr before assays. For caspase 3/7 assay, medium was removed and substrate buffer was added to lyse the cell and react with caspase 3/7 to give rise to fluorescence signal which was read at Ex=485 nm and Em=530 nm on a Tecan Safire II plate reader after 1 hr incubation. The caspase 3/7 activity of sample cells with the compound treatment was expressed as relative fold change after normalizing to the control cells. The LDH assay (indicative of membrane integrity) was performed using a Kit from Promega Corp according to manufactor's instructions.

The test system of a further test is caspase-3/9 and PARP. Description: Western blot of caspase-3, caspase-9 and PARP in MCF-7 and AGS. The format is cell-based, human. To be noted: 50 μM. Here is the method: FIG. 31. DBZIM induces cleavage of caspase-3, caspase-9 and PARP as indication of apoptosis. Western blot analysis for the effect of DBZIM, on the cleavage of caspase-3, Caspase-9 and PARP A) in p53 wild type gastric cancer cell AGS and B) in p53 wild type breast cancer cell line MCF-7. Western blot analysis conducted on cells after 72 h exposure to 50 μM of DBZIM.
To determine whether cells undergo apoptosis, Western blotting was first performed for a caspase-3/9 and PARP activation with proteins from MCF-7 and AGS treated with DBZIM. […] Similarly we observed a DBZIM-induced elevation of caspase 3/7 in C6 (by 3 folds at 2.0 mM) and in U87 MG (by 17 folds at 2 mM) (FIGS. 30B and 30D).

What is called IC50 is the point on the concentration scale where inhibition reaches its midpoint. Read a high IC50 as a need for much substance. With `[Br-].c1ccc(Cn2cc[n+](Cc3ccccc3)c2)cc1` [DBZIM, 1,3-bisbenzylimidazolium bromide], the “HLE cell proliferation (total cell number, BrdU positive cells)” value in the test with HLE cells is “inhibited the HLE cell proliferation”. The “apoptosis (annexin V staining)” value in the test with HepG2 cells is on record as “dose-dependently induced apoptosis”. The IC50 amounted to 50 µM with H1299, 40 µM in the test with AGS, 2100 µM with U87 MG [1] and 1000 µM with C6. Further, in the test with U87 MG [2], the “elevation of caspase 3/7” value came to 17 folds. The “caspase-3/9 and PARP activation” value in the test with caspase-3/9 and PARP is “time-dependently increased caspase-3/9 and PARP activity”.
